In ChEMBL document CHEMBL1131650, “Reactions of 1-methylbenzimidazole derivatives with m-chloroperoxybenzoic acid” (Bioorg Med Chem Lett, 1998):

assay: Compound was evaluated for dissociation constant (pKa); assay type: physicochemical

Compound	pKa
Cc1cc2ncn(C)c2cc1C	6
Cn1cnc2cc([N+](=O)[O-])c([N+](=O)[O-])cc21	1.6
Cn1cnc2ccccc21	5.6

Other lines, results leading:

pKa	Compound
3.35	Cn1cnc2ccc([N+](=O)[O-])cc21
5.7	Cc1ccc2ncn(C)c2c1
5.65	Cc1ccc2c(c1)ncn2C
3.28	Cn1cnc2cc([N+](=O)[O-])ccc21
